Laboratory results taken from patent US7989422B2, “Antibacterial agents” (Alchemia Limited, priority 2005, dated 2011).

System: Staphylococcus aureus ATCC 25923
Assay: MIC against S. aureus, microbroth dilution in MH broth, without or with 5% horse serum
Format: cell-based
Settings: MIC class; S. aureus ATCC 25923
Procedure: Testing was conducted to determine the in vitro antimicrobial activity of a series of compounds synthesised by Alchemia Pty Ltd. The antimicrobial activity of each compound was determined at a single concentration (128 μg/mL) in Mueller Hinton (MH) broth against the ATCC type strain of Staphylococcus aureus. […] Compounds showing activity at concentrations up to 32-64 μg/mL in the presence/absence of serum were then tested for MIC activity against a standard set of 5 microorganisms comprising of ATCC type strains of MRSA, Enterococcus faecalis, Enterococcus faecium, VRE and Escherichia coli. CLSI (formerly NCCLS) microbroth dilution technique was used.
Each compound is initially dissolved in 100 μL of DMSO. Each solution is then diluted further in 0.9 mL of sterile MH broth to give a total volume of 1 mL (1000 μg/mL) This stock solution is then further diluted in MH broth to give a test solution with final concentration of 128 μg/mL using the following formula: 0.5 ml stock in 3.4 ml MH broth
Each test organism was subcultured from the −70° C. deep freezer onto horse blood agar. The plates were streaked to obtain isolated colonies and incubated at 35° C. in non-CO2 incubator for 24 hours. A second subculture was carried out onto horse blood agar. For each test organism, 1-2 colonies were selected from an 18-24 hour culture and inoculated into 2 ml sterile MH broth. The turbidity was adjusted to 0.5 McFarland standard.
A 1:10 dilution in MH broth (200 μL in 2 ml MH) of the 0.5 McFarland control was prepared. 5 μL of this diluted solution was used to inoculate the trays.
100 μL of sterile MH broth was added in columns 2-12. 200 μL of test solution was added in column 1. 100 μL was transferred in column 2 giving a ½ dilution. 100 μL from column 2 was then transferred to column 3 (¼ dilution). This dilution was carried on until column 12. A second tray containing the same test solution was inoculated in a similar manner using sterile MH broth with 5% heat inactivated horse serum. 5 μL of organism solution was then added to each well. The plates were then sealed and incubated at 35° C. in a non-CO2 incubator for 18-24 hours. The plates were examined for growth after the incubation time.
If the test organism is sensitive to the compound in the broth the growth will be inhibited. Similarly, if the organism grows on the antibiotic containing medium then it is resistant to this particular antibiotic.

O=C(NC1C(CO)OCC(NS(=O)(=O)c2ccc(Cl)c(C(F)(F)F)c2)C1O)c1ccc(-c2ccc(Cl)cc2)cc1 (stereo not shown) [Compound 12]
S. Aureus 25923 activity: + (“+”: MIC (μg/mL): 64 ≧ MIC > 16)

Nc1ccccc1OC1C(NC(=O)Nc2ccc(Cl)c(C(F)(F)F)c2)COC(CO)C1NC(=O)CC(N)c1ccc(-c2ccccc2)cc1 (stereo not shown) [Compound 72]
S. Aureus 25923 activity: ++ (“++”: MIC (μg/mL): MIC ≦ 16)

O=C(Nc1ccc(Cl)c(C(F)(F)F)c1)NC1COC(CO)C(n2c(NCc3cccc(Oc4ccccc4)c3)nc3cc(C(F)(F)F)cc(Cl)c32)C1O (stereo not shown) [Compound 258]
S. Aureus 25923 activity: ++ (“++”: MIC (μg/mL): MIC ≦ 16)

O=C(Nc1ccc(Cl)c(C(F)(F)F)c1)NC1COC(CO)C(n2c(NCc3ccc(-c4ccccc4)cc3)nc3cc(C(F)(F)F)cc(Cl)c32)C1O (stereo not shown) [Compound 259]
S. Aureus 25923 activity: ++ (“++”: MIC (μg/mL): MIC ≦ 16)

O=C(Nc1ccc(Cl)c(C(F)(F)F)c1)NC1COC(CO)C(n2c(NCc3ccc4ccccc4c3)nc3cc(C(F)(F)F)cc(Cl)c32)C1O (stereo not shown) [Compound 261]
S. Aureus 25923 activity: ++ (“++”: MIC (μg/mL): MIC ≦ 16)

O=S(=O)(NC1COC(CO)C(n2c(Nc3ccc(Cl)cc3)nc3cc(C(F)(F)F)ccc32)C1O)c1ccc(C(F)(F)F)cc1 (stereo not shown) [Compound 262]
S. Aureus 25923 activity: + (“+”: MIC (μg/mL): 64 ≧ MIC > 16)

O=S(=O)(NC1COC(CO)C(n2c(Nc3ccc(C(F)(F)F)cc3)nc3cc(C(F)(F)F)ccc32)C1O)c1ccc(C(F)(F)F)cc1 (stereo not shown) [Compound 263]
S. Aureus 25923 activity: ++ (“++”: MIC (μg/mL): MIC ≦ 16)

O=S(=O)(NC1COC(CO)C(n2c(Nc3ccc(-c4ccccc4)cc3)nc3cc(C(F)(F)F)ccc32)C1O)c1ccc(C(F)(F)F)cc1 (stereo not shown) [Compound 264]
S. Aureus 25923 activity: ++ (“++”: MIC (μg/mL): MIC ≦ 16)

O=S(=O)(NC1COC(CO)C(n2c(NCc3ccccc3)nc3cc(C(F)(F)F)ccc32)C1O)c1ccc(C(F)(F)F)cc1 (stereo not shown) [Compound 265]
S. Aureus 25923 activity: + (“+”: MIC (μg/mL): 64 ≧ MIC > 16)

O=S(=O)(NC1COC(CO)C(n2c(NCc3ccc(Cl)cc3)nc3cc(C(F)(F)F)ccc32)C1O)c1ccc(C(F)(F)F)cc1 (stereo not shown) [Compound 266]
S. Aureus 25923 activity: ++ (“++”: MIC (μg/mL): MIC ≦ 16)

CC(C)(C)c1ccc(CNc2nc3cc(C(F)(F)F)ccc3n2C2C(CO)OCC(NS(=O)(=O)c3ccc(C(F)(F)F)cc3)C2O)cc1 (stereo not shown) [Compound 267]
S. Aureus 25923 activity: ++ (“++”: MIC (μg/mL): MIC ≦ 16)

O=S(=O)(NC1COC(CO)C(n2c(NCc3cccc(Oc4ccccc4)c3)nc3cc(C(F)(F)F)ccc32)C1O)c1ccc(C(F)(F)F)cc1 (stereo not shown) [Compound 268]
S. Aureus 25923 activity: ++ (“++”: MIC (μg/mL): MIC ≦ 16)

O=S(=O)(NC1COC(CO)C(n2c(NCc3ccc(-c4ccccc4)cc3)nc3cc(C(F)(F)F)ccc32)C1O)c1ccc(C(F)(F)F)cc1 (stereo not shown) [Compound 269]
S. Aureus 25923 activity: ++ (“++”: MIC (μg/mL): MIC ≦ 16)

O=S(=O)(NC1COC(CO)C(n2c(NCc3ccc4ccccc4c3)nc3cc(C(F)(F)F)ccc32)C1O)c1ccc(C(F)(F)F)cc1 (stereo not shown) [Compound 270]
S. Aureus 25923 activity: ++ (“++”: MIC (μg/mL): MIC ≦ 16)

O=S(=O)(NC1COC(CO)C(n2c(Nc3ccc(Cl)cc3)nc3cc(C(F)(F)F)cc(Cl)c32)C1O)c1ccc(C(F)(F)F)cc1 (stereo not shown) [Compound 271]
S. Aureus 25923 activity: ++ (“++”: MIC (μg/mL): MIC ≦ 16)

O=S(=O)(NC1COC(CO)C(n2c(Nc3ccc(C(F)(F)F)cc3)nc3cc(C(F)(F)F)cc(Cl)c32)C1O)c1ccc(C(F)(F)F)cc1 (stereo not shown) [Compound 272]
S. Aureus 25923 activity: ++ (“++”: MIC (μg/mL): MIC ≦ 16)

O=S(=O)(NC1COC(CO)C(n2c(Nc3ccc(-c4ccccc4)cc3)nc3cc(C(F)(F)F)cc(Cl)c32)C1O)c1ccc(C(F)(F)F)cc1 (stereo not shown) [Compound 273]
S. Aureus 25923 activity: ++ (“++”: MIC (μg/mL): MIC ≦ 16)

O=S(=O)(NC1COC(CO)C(n2c(NCc3ccccc3)nc3cc(C(F)(F)F)cc(Cl)c32)C1O)c1ccc(C(F)(F)F)cc1 (stereo not shown) [Compound 274]
S. Aureus 25923 activity: ++ (“++”: MIC (μg/mL): MIC ≦ 16)

O=S(=O)(NC1COC(CO)C(n2c(NCc3ccc(Cl)cc3)nc3cc(C(F)(F)F)cc(Cl)c32)C1O)c1ccc(C(F)(F)F)cc1 (stereo not shown) [Compound 275]
S. Aureus 25923 activity: ++ (“++”: MIC (μg/mL): MIC ≦ 16)
